Measurements from PubChem BioAssay (NCI).
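Method: 48-hour compound exposure of cells in 96-well plates, five concentrations, linear interpolation of endpoints. Here, GI50 denotes the concentration required for 50% inhibition of growth. Definition used: TGI = concentration required for complete inhibition of growth.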

Assays:
Assay in all cases: NCI tumour cell line growth inhibition, 48 h
SNB-78 CNS = system: SNB-78 CNS
DMS 114 small cell lung = system: DMS 114 small cell lung
DMS 273 small cell lung = system: DMS 273 small cell lung
BT-549 breast = system: BT-549 breast
T-47D breast = system: T-47D breast
PC-3 prostate = system: PC-3 prostate
MDA-MB-435 = system: MDA-MB-435
MDA-N = system: MDA-N

CC1CC[P+](c2ccccc2)(c2ccccc2)CC1
TGI (SNB-78 CNS): > 100 µM | TGI (DMS 114 small cell lung): > 100 µM | TGI (DMS 273 small cell lung): > 100 µM

COC(=O)[C@]12CC[C@@H](C)[C@H](C)[C@@H]1C1=CC[C@@H]3[C@@]4(C)C(C=O)=C[C@@](C)(COC(=O)/C=C/c5ccccc5)[C@@H]4[C@H](O)C[C@@]3(C)[C@]1(C)CC2
GI50 (BT-549 breast): 6.05 µM | TGI (BT-549 breast): 63.9 µM | GI50 (T-47D breast): 4.4 µM | TGI (T-47D breast): 84.1 µM | GI50 (PC-3 prostate): 2.22 µM | TGI (PC-3 prostate): > 100 µM | GI50 (MDA-MB-435): 3.04 µM | TGI (MDA-MB-435): 10.3 µM

CCC[CH2][Pb]([Cl])([CH2]CCC)[CH2]CCC
GI50 (BT-549 breast): 0.031 µM | TGI (BT-549 breast): 0.137 µM | GI50 (T-47D breast): 0.0181 µM | TGI (T-47D breast): 0.0383 µM | GI50 (MDA-N): 0.0196 µM | TGI (MDA-N): 0.0461 µM | GI50 (PC-3 prostate): 0.0355 µM | TGI (PC-3 prostate): 0.119 µM | GI50 (MDA-MB-435): 0.0178 µM | TGI (MDA-MB-435): 0.0366 µM

Nc1c(F)cc(-c2nc3cc(F)ccc3[se]2)cc1Br
GI50 (BT-549 breast): 0.334 µM | TGI (BT-549 breast): > 27.8 µM | GI50 (T-47D breast): 0.0578 µM | TGI (T-47D breast): 0.631 µM | GI50 (PC-3 prostate): 14.5 µM | TGI (PC-3 prostate): > 100 µM | GI50 (MDA-MB-435): 14.6 µM | TGI (MDA-MB-435): > 100 µM

CN(C)CCNC(=O)NC[C@H]1CC[C@@H]2[C@H](O1)c1cc(C(F)(F)F)ccc1N[C@H]2c1ccccc1
GI50 (BT-549 breast): 0.389 µM | TGI (BT-549 breast): 14.7 µM | GI50 (T-47D breast): 0.371 µM | TGI (T-47D breast): 17.8 µM | GI50 (PC-3 prostate): 0.265 µM | TGI (PC-3 prostate): 27 µM | GI50 (MDA-MB-435): 0.0278 µM | TGI (MDA-MB-435): 0.0718 µM

CN(C)c1ccc2nc(CC(O)(C(F)(F)F)C(F)(F)F)ccc2c1
TGI (BT-549 breast): > 10 µM | TGI (T-47D breast): > 10 µM | TGI (MDA-N): > 10 µM | TGI (PC-3 prostate): > 10 µM | TGI (MDA-MB-435): > 10 µM

O=c1cc(-c2ccccc2)[nH]c2cc(Cl)ccc12
TGI (SNB-78 CNS): > 100 µM | TGI (DMS 114 small cell lung): 3.29 µM | TGI (DMS 273 small cell lung): 10.5 µM

COc1ccc(OC)c(/C=C/c2nc(SCc3ccccc3)n(-c3ccc(Cl)cc3)n2)c1
GI50 (BT-549 breast): 11.6 µM | TGI (BT-549 breast): 38.5 µM | GI50 (T-47D breast): 11.5 µM | TGI (T-47D breast): 84.6 µM | GI50 (PC-3 prostate): 33.3 µM | TGI (PC-3 prostate): > 100 µM

C1C[OH+]CC[OH+]CCNCC[OH+]CC[OH+]CCN1.Cl.[Cl-].[Pt+4]
GI50 (DMS 273 small cell lung): > 100 µM | TGI (DMS 273 small cell lung): > 100 µM

COc1ccc2c(c1OC(C)=O)C1=CC(=O)CCC13CCNC3C2 (stereo not drawn)
TGI (BT-549 breast): > 100 µM | TGI (T-47D breast): > 100 µM | TGI (MDA-N): > 100 µM | TGI (PC-3 prostate): > 100 µM | TGI (MDA-MB-435): > 100 µM

C[Si](C)(C)C(Sc1ccccc1)(Sc1ccccc1)Sc1ccccc1
TGI (SNB-78 CNS): > 100 µM | TGI (DMS 114 small cell lung): > 100 µM | TGI (DMS 273 small cell lung): > 100 µM

COc1ccc2c(c1)C(=O)c1c-2c(Nc2cccc(C(C)=O)c2)nc2ccccc12
GI50 (BT-549 breast): 9.68 µM | TGI (BT-549 breast): 21.4 µM | GI50 (T-47D breast): 13.6 µM | TGI (T-47D breast): 55.2 µM | GI50 (PC-3 prostate): 14.3 µM | TGI (PC-3 prostate): 32.5 µM | GI50 (MDA-MB-435): 30.8 µM | TGI (MDA-MB-435): > 100 µM

C#Cc1cccc(NC(=O)c2ccc(NC(=O)CCl)cc2)c1
GI50 (BT-549 breast): 11.1 µM | TGI (BT-549 breast): 23.9 µM | GI50 (T-47D breast): 31.2 µM | TGI (T-47D breast): > 82.5 µM | GI50 (PC-3 prostate): 15.4 µM | TGI (PC-3 prostate): 60.4 µM | GI50 (MDA-MB-435): 43.8 µM | TGI (MDA-MB-435): > 82.5 µM

Cc1ccc(S(=O)(=O)Nc2ccc(-c3cc(-c4cccc(F)c4)c(C#N)c(N)n3)cc2)cc1
GI50 (BT-549 breast): 1.35 µM | TGI (BT-549 breast): 2.78 µM | GI50 (T-47D breast): 1.48 µM | TGI (T-47D breast): 3.66 µM | GI50 (PC-3 prostate): 2.19 µM | TGI (PC-3 prostate): 7.56 µM | GI50 (MDA-MB-435): 2.02 µM | TGI (MDA-MB-435): 4.46 µM

CCN=C(C#N)NCC
TGI (SNB-78 CNS): > 100 µM | TGI (DMS 114 small cell lung): 92 µM | TGI (DMS 273 small cell lung): > 100 µM
